In one assay the test system is non-NMDA receptors. The assay is described as follows: Whole-cell currents elicited by non-NMDA agonists in rat retinal ganglion cells. Type of assay: cell-based. To be noted: 125 μM kainate, 60 μM AMPA, 30 μM quisqualate. The protocol:
The third central neuronal preparation in which the effects of oxidation and reduction on NMDA responses were tested was the isolated rat retinal ganglion cell. Postnatal retinal ganglion cells were identified and cultured as described in Lipton et al., supra. Physiological solutions and experimental protocol were the same as described for cortical neurons (Example 2), except that TTX was excluded from the extracellular fluid, since whole-cell recordings were performed on neurons that were solitary and had no apparent connections to other cells and no spontaneous action potentials.
In the retinal ganglion cells, we further tested the effects of DTT and DTNB on responses elicited by glutamate analogs acting at non-NMDA receptors to confirm our previous observations in the chick retina, i.e., a lack of effect of reduction and oxidation on responses induced by agonists acting at non-NMDA receptors.

For a further assay, the system named is NMDA receptor. The assay is described as follows: NMDA-induced responses recorded in intact chick retina (eyecup, optic nerve DC potential). Type of assay: cell-based. The protocol:
Eyecups were obtained from 2-to 5-day-old chicks and continuously superfused at 20-25° C. at a rate of 8 ml/min with Tyrodes solution (130 mM NaCl, 3 mM KCl, 17 mM dextrose, 20 mM NaHCO3, 0.01% w/v phenol red; bubbled with a gas mixture of 95% O2 and 5% CO2) containing 5 mM MgCl2 to reduce synaptic activity. […] Traces were triggered by the opening of two solenoid valves that shunted approximately 200 μl of agonist (1, 1-dimethyl-4-phenyl-piperazinium iodide, DMPP or NMDA) into the perfusion line, Agonists reached the preparation approximately 7s later. […] Some experiments were performed in the presence of 10 μg/ml catalase and 1 μg/ml superoxide dismutase. Antagonists, reducing agents, or oxidizing agents were introduced directly via the perfusate.

In a further assay the test system is retinal ganglion cells. The assay is described as follows: Survival of retinal ganglion cells exposed to glutamate (NMDA neurotoxicity). Format: cell-based, rat. The protocol: To investigate the influence of redox modulation on NMDA neurotoxicity, survival of an identified central neuron, the retinal ganglion cell, was monitored for 12-24 hr after a brief (5-10 min.) exposure to DTT. To determine the degree of killing specifically related to activation of the NMDA receptor, APV at 200 μM was added to sibling cultures. APV-preventable, glutamate-induced death was increased 70±9% with DTT treatment.
Retinal ganglion cell neurons were labeled in situ, dissociated from the retina, and cultured as follows. Retinal ganglion cells from 7- to 12-day-old Long-Evans rats were labeled and enzymatically dissociated as described by Leifer et al., Science 224: 303, 1984. Following rinse of the dissociated retinal cells with a physiological saline based on Hanks' salts (composition in mM: NaCl, 137; NaHCO3, 1; Na2HPO4, 0.34; KCl, 5,36; KH2PO4, 0.44; CaCl2, 1.25, MgSO4, 0.5; MgCl2, 0.5; N-2-hydroxyethyl-piperazine-N′-2-ethanesulfonic acid (HEPES), 5; dextrose, 22.2; Phenol Red, 0.001% v/v; adjusted to pH 7.2 with 0.3 M NaOH), the cells were mechanically dispersed and aliquoted to treatment vials. These vials contained control saline solution, or saline solution with either 0.5-2 mM DTT, or 0.5 mM DTT in the presence of 1 mM DTNB. Treatment groups with DTNB were readjusted to pH 7.2 with 0.3 M NaOH. Cells were agitated gently over a 5-10 min period. After treatment, 100 μl volumes of the cell suspension were plated onto glass coverslips coated with poly-L-lysine in 35×10 mm tissue-culture dishes containing 2 ml of culture medium. The cell culture medium was based on Eagle's minimum essential medium (MEM), modified so that it was nominally free of magnesium and contained 10 mM CaCl2 to enhance NMDA receptor-mediated neuro-toxicity. The medium was also supplemented with methylcellulose 0.7% w/v, gentamicin 1 μg/ml, dextrose 16 mM, and rat serum 5% v/v. Glutamate levels in the culture medium were monitored by HPLC analysis. Concentrations of glutamate added to the medium of each experiment to induce cell killing averaged 10 μM (day to day variability in neuronal cell death was most probably due to slight variations in the amount of endogenous glutamate or a glutamate-like substance in these cultures). The 100 μl aliquots of cell suspension diluted into the 2 ml of MEM produced a final concentration of 50 μM Mg^2+, as well as levels of DTT and DTNB at 5% of their initial treatment concentrations. The cell cultures were incubated for 12-24 hours at 37° C. in an atmosphere of 5% CO2/95% humidified air. Neuronal survival was then scored by counting retinal ganglion cells displaying uptake and cleavage of fluorescein diacetate to fluorescein, as described by Hahn et al. Proc. Nat. Acad. Sci. USA 85:6556, 1988.
Experiments were conducted in triplicate and repeated on eleven separate days. In order to compare results obtained on different days, data were normalized such that the total number of surviving neurons in a given experiment divided by the number of treatment categories (i.e., 4) equalled 100.
Retinal cells were cultured as described in Example 1. In these experiments transient exposure to the reduced form of DTT (500 μM) occurred in the presence of DTNB (1 mM).

SMILES strings stand for the structures.

For the compound `O[C@@H](CS)[C@@H](O)CS` [DTT, dithothreitol], the “currents elicited by kainate, AMPA or quisqualate after reduction” value with non-NMDA receptors (1 mM DTT) is “no substantial effect”. Further, the “response to NMDA, % of control (potentiation)” value in the assay on NMDA receptor (100 μM NMDA, DTT 1-2 mM applied for 10-25 min, mean ± spread) is 530%±280%. In addition, the “response to NMDA, % of control, range” value in the assay on NMDA receptor (100 μM NMDA, DTT 1-2 mM applied for 10-25 min, range) is on record as 200%-860%. In the assay with retinal ganglion cells (APV 200 μM, DTT transient exposure, 12-24 hr), the “death of retinal ganglion cells exposed to glutamate in the culture medium” value is “substantially increased death”. In the assay on retinal ganglion cells (brief (5-10 min) exposure to DTT, survival monitored 12-24 hr), the “increase of APV-preventable, glutamate-induced death” value is listed as 70±9%.
Regarding `O=C(O)c1cc(SSc2ccc([N+](=O)[O-])c(C(=O)O)c2)ccc1[N+](=O)[O-]` [DTNB, 5′-5′-dithiobis-2-nitrobenzoic acid], the “responses elicited by kainate, AMPA or quisqualate after oxidation” value with non-NMDA receptors (200 μM DTNB) was “did not affect”. In addition, the “decrease of NMDA response following oxidation” value with NMDA receptor (0.1-1.0 mM DTNB applied for 5 min, compared with controls, mean ± spread) is recorded as 81.6%±24.1%. The “decrease of NMDA response following oxidation, range” value with NMDA receptor (0.1-1.0 mM DTNB applied for 5 min, range) is on record as 43%-100%. Besides, in the assay with retinal ganglion cells (0.5 mM DTT in the presence of 1 mM DTNB), the “DTT-enhanced glutamate-induced death with concomitant DTNB” value is “totally blocked”.
